{"source": "paper PMC9469100", "about": "“Turning Nonselective Inhibitors of Type I Protein Arginine Methyltransferases into Potent and Selective Inhibitors of Protein Arginine Methyltransferase 4 through a Deconstruction–Reconstruction and Fragment-Growing Approach” (Journal of Medicinal Chemistry, 2022)", "key": {"[1]": {"biological_target": "Mus musculus PRMT4 PRMT core (mmPRMT4_(130–487) or mmPRMT4_(130–497)) (Mus musculus) (UniProt Q9WVG6)", "test": "crystal structure; cocrystallization of mmPRMT4 with compounds 12a-12c and 12f-12h, hanging drop vapor diffusion, 293 K, space group P2_(1)2_(1)2, four monomers in the asymmetric unit"}, "PRMT4 (HEK293T cells)": {"system": "PRMT4 (HEK293T cells)", "test": "Western blot with pan-PRMT4 substrate antibody, HEK293T", "conditions": "TP-064 concentrations higher than 10 μM"}, "PRMT4 (MCF7 cells)": {"system": "PRMT4 (MCF7 cells)", "test": "Western blot with pan-PRMT4 substrate antibody, MCF7", "conditions": "12h 10 and 50 μM, TP-064 10 μM; 4 and 8 days; PRMT4sub immunoblot"}, "MCF7 cells": {"system": "MCF7 cells", "test": "Cell proliferation assay (CellTiter-Glo), MCF7", "format": "cell-based, human", "conditions": "10 μM TP064; 50 μM 12h; up to day 8", "procedure": "(§1) HEK293T cells were seeded into 96-well plates at the density of 250 cells/well in 100 μL of medium. MCF7 cells were seeded into 96-well plates at the density of 1000 cells/well in 100 μL of medium. Cell proliferation was analyzed at day 0, day 2, day 4, day 6, and day 8, and the medium was changed at day 4. The proliferation analysis was based on viability as determined by CellTiter-Glo (#G7572, Promega) according to the manufacturer’s instructions. Triple independent repeats were conducted."}, "HEK293T cells": {"system": "HEK293T cells", "test": "Cell proliferation assay (CellTiter-Glo), HEK293T", "format": "cell-based, human", "conditions": "10 μM TP064; 50 μM 12h; up to day 8", "procedure": "as §1"}, "PRMT5": {"system": "PRMT5", "design": "method as in PMID 25893041", "conditions": "cited from earlier work"}, "PRMT7": {"system": "PRMT7", "design": "method as in PMID 25893041", "conditions": "cited from earlier work"}, "[2]": {"biological_target": "Mus musculus PRMT6, residues 34–378 (Mus musculus) (UniProt Q6NZB1)", "test": "crystal structure; cocrystallization of mmPRMT6 with compounds 12a, 12c and 12f, hanging drop vapor diffusion, 293 K, space group P2_(1), two molecules in the asymmetric unit"}, "SETD8": {"biological_target": "T1, SETD8 (Homo sapiens, UniProt Q9NQR1)", "T1 construct": "SETD8 (residues 190–352, C-terminus); N-terminal His-tag; His (N); purchased Reaction Biology Corporation", "T1 sequence (Q9NQR1 231-393)": "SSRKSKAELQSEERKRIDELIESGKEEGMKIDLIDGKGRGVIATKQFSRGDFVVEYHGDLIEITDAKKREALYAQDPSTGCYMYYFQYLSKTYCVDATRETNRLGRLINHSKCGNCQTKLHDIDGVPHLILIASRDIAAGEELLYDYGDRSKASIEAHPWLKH", "test": "HotSpot KMT activity assay, SETD8", "format": "biochemical", "conditions": "10-dose mode, 3-fold dilution starting at 100 µM; read-out: ref. cmpd. IC50 (µM), SETD8", "procedure": "(§2) Then, ^3H-SAM (final concentration 1 μM) was delivered into the reaction mixture to initiate the reaction. After incubation for 60 min at 30 °C, the reaction mixture was delivered to filter-paper for detection (as assessed by scintillation). […] No inhibitor control (DMSO) was considered as 100% enzyme activity. Data were analyzed using Excel and GraphPad Prism 6.0 software (GraphPad Software Inc., San Diego, CA). Values obtained for each compound are mean ± SD determined for two separate experiments."}, "SET7/9": {"biological_target": "T2, SET7/9 (Homo sapiens, UniProt Q8WTS6)", "T2 construct": "SET7/9 (residues 2–366, C-terminus); with a N-terminal GST-tag and a C-terminal His-tag; GST (N); His (C); purchased Reaction Biology Corporation", "T2 sequence (Q8WTS6 2-366)": "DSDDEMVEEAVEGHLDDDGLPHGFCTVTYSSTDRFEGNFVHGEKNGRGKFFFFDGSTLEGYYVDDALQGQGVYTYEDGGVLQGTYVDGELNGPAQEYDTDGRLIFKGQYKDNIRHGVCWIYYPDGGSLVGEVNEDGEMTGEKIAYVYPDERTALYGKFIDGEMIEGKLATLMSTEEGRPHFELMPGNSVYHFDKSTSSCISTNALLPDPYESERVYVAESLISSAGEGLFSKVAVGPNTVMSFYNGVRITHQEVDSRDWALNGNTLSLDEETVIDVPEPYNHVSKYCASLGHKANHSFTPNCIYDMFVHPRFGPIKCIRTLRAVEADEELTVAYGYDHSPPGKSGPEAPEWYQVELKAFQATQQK", "test": "HotSpot KMT activity assay, SET7/9", "format": "biochemical", "conditions": "10-dose mode, 3-fold dilution starting at 100 µM; read-out: ref. cmpd. IC50 (µM), SET7/9", "procedure": "as §2"}, "SMYD3": {"biological_target": "SMYD3 (Homo sapiens, UniProt Q9H7B4)", "sequence (Q9H7B4 whole entry)": "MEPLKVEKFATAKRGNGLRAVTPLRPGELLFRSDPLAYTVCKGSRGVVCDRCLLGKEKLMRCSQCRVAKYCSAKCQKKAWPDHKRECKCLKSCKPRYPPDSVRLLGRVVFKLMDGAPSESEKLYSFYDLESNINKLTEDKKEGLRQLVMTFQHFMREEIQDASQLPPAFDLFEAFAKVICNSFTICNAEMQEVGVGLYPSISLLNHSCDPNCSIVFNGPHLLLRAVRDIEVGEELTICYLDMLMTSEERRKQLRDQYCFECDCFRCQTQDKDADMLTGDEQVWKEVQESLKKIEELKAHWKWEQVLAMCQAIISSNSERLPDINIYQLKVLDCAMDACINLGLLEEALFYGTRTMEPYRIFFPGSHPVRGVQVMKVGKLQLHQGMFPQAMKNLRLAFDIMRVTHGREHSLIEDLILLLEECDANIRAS", "test": "HotSpot KMT activity assay, SMYD3", "format": "biochemical", "conditions": "10-dose mode, 3-fold dilution starting at 100 µM; read-out: ref. cmpd. IC50 (µM), SMYD3", "procedure": "as §2"}, "MLL1 complex": {"biological_target": "T3, MLL1 complex (Homo sapiens, UniProt Q03164)", "T3 construct": "including MLL1 residues 3745–3969, C-terminus; His (N); purchased Reaction Biology Corporation", "test": "HotSpot KMT activity assay, MLL1", "format": "biochemical", "conditions": "10-dose mode, 3-fold dilution starting at 100 µM; read-out: ref. cmpd. IC50 (µM), MLL1", "procedure": "as §2"}, "SUV39H2": {"biological_target": "T4, SUV39H2 (Homo sapiens, UniProt Q9H5I1)", "T4 construct": "SUV39H2 (residues 46–410, C-terminus); N-terminal fusion protein with a C-terminal His-tag; His (C); purchased Reaction Biology Corporation", "T4 sequence (Q9H5I1 46-410)": "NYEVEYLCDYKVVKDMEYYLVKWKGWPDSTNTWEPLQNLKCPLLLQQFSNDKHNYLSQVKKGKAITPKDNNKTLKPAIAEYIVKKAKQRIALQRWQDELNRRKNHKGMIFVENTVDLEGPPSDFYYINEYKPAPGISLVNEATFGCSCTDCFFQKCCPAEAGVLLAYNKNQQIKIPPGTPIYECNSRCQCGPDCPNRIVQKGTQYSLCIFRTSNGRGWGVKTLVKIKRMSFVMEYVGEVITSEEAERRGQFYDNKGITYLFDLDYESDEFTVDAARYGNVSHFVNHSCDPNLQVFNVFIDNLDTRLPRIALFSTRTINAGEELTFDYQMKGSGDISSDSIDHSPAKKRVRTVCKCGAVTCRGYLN", "test": "HotSpot KMT activity assay, SUV39H2", "format": "biochemical", "conditions": "10-dose mode, 3-fold dilution starting at 100 µM; read-out: ref. cmpd. IC50 (µM), SUV39H2", "procedure": "as §2"}, "SUV420H1": {"biological_target": "T5, SUV420H1 (Homo sapiens, UniProt Q4FZB7)", "T5 construct": "SUV420H1-tv2 (residues 2–393); C-terminus; N-terminal GST-tag; GST (N); purchased Reaction Biology Corporation", "T5 sequence (Q4FZB7 2-393 isoform Q4FZB7-2)": "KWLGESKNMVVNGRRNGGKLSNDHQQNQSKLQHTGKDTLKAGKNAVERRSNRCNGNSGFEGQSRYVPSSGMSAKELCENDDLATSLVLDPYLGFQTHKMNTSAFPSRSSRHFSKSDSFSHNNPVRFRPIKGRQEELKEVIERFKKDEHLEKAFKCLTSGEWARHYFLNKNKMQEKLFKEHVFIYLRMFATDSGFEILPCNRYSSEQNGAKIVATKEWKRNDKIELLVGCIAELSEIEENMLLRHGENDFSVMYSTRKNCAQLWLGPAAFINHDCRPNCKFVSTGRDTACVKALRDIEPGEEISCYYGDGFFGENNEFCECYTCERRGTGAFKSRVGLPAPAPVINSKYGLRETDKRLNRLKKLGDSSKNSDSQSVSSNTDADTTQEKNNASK", "test": "HotSpot KMT activity assay, SUV420H1", "format": "biochemical", "conditions": "10-dose mode, 3-fold dilution starting at 100 µM; read-out: ref. cmpd. IC50 (µM), SUV420H1", "procedure": "as §2"}}, "data": [{"molecule": "Mus musculus PRMT4 PRMT core (mmPRMT4_(130–487) or mmPRMT4_(130–497)) (from UniProt Q9WVG6 130-487) (domain or fragment)", "values": [{"measurement": "stoichiometry N", "setting": "[1]", "value": 4}]}, {"molecule": "CNCCN1CCC(c2cc(CN(C)C(=O)c3cccc(Oc4ccccc4)c3)ccn2)CC1", "note": "[TP-064, reference compound]", "values": [{"measurement": "cell death", "setting": "PRMT4 (HEK293T cells)", "value": "led to cell death"}, {"measurement": "arginine methylation levels in MCF7 cells", "setting": "PRMT4 (MCF7 cells)", "value": "profoundly affected"}, {"measurement": "proliferation of MCF7 cells", "setting": "MCF7 cells", "value": "markedly decreased"}, {"measurement": "proliferation of HEK293T cells", "setting": "HEK293T cells", "value": "no effect was observed"}]}, {"molecule": "CC(C)N(CCCNC(=O)Nc1ccc(C(C)(C)C)cc1)C[C@H]1O[C@@H](n2ccc3c(N)ncnc32)[C@H](O)[C@@H]1O", "note": "[compound 3]", "values": [{"measurement": "IC50", "setting": "PRMT5", "value": 0.52, "unit": "µM"}, {"measurement": "IC50", "setting": "PRMT7", "value": 7.5, "unit": "µM"}]}, {"molecule": "Mus musculus PRMT6, residues 34–378 (from UniProt Q6NZB1 34-378) (domain or fragment)", "values": [{"measurement": "stoichiometry N", "setting": "[2]", "value": 2}]}, {"molecule": "Cc1ccc(NC2=CC(=O)c3sc(C)nc3C2=O)cc1", "note": "[ryuv, ryuvidine, reference compound]", "values": [{"measurement": "IC50", "setting": "SETD8", "value": 0.186, "unit": "µM"}]}, {"molecule": "Nc1ncnc2c1ncn2[C@@H]1O[C@H](CSCC[C@H](N)C(=O)O)[C@@H](O)[C@H]1O", "note": "[SAH, S-5′-adenosyl-L-homocysteine, reference compound]", "values": [{"measurement": "IC50", "setting": "SET7/9", "value": 139, "unit": "µM"}, {"measurement": "IC50", "setting": "SMYD3", "value": 18.7, "unit": "µM"}, {"measurement": "IC50", "setting": "MLL1 complex", "value": 0.464, "unit": "µM"}, {"measurement": "IC50", "setting": "SUV39H2", "value": 32.7, "unit": "µM"}, {"measurement": "IC50", "setting": "SUV420H1", "value": 46.5, "unit": "µM"}]}]}
